From patent US11584755B2 (IDEAYA BIOSCIENCES, INC., priority 2017, dated 2023)

Legend:
Type in all cases: biochemical
hFEN1 = hFEN1 (Homo sapiens (Human), UniProt P39748); assay: Enzymatic IC50 assay, FAM-labeled DNA oligomer substrate, fluorescence intensity (FEN1); settings: hFEN1 70 pM, substrate 100 nM, reaction time 20 minutes, 23° C.
Summary of the method: (§1)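 FEN1, EXO1 or XPG was preincubated 15 min with compound, then the FAM-labelled DNA oligomer substrate was added in Tris-HCl pH 8.0 with 10 mM MgCl2 at 23° C. FEN1 was 70 pM with 100 nM substrate for 20 min, EXO1 6 nM with 30 nM for 60 min, and XPG 100 nM with 100 nM for 120 min. Reactions were EDTA-stopped and read by fluorescence intensity.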

hEXO1, Isoform1 = hEXO1, Isoform1 (Homo sapiens (Human), UniProt Q9UQ84); assay: Enzymatic IC50 assay, FAM-labeled DNA oligomer substrate, fluorescence intensity (EXO1); settings: hEXO1 6 nM, substrate 30 nM, reaction time 60 minutes, 23° C.
Summary of the method: as §1

hXPG = hXPG (Homo sapiens (Human), UniProt P28715); assay: Enzymatic IC50 assay, FAM-labeled DNA oligomer substrate, fluorescence intensity (XPG); settings: hXPG 100 nM, substrate 100 nM, reaction time 120 minutes, 23° C.
Summary of the method: as §1

Sequence of hXPG (P28715 whole entry): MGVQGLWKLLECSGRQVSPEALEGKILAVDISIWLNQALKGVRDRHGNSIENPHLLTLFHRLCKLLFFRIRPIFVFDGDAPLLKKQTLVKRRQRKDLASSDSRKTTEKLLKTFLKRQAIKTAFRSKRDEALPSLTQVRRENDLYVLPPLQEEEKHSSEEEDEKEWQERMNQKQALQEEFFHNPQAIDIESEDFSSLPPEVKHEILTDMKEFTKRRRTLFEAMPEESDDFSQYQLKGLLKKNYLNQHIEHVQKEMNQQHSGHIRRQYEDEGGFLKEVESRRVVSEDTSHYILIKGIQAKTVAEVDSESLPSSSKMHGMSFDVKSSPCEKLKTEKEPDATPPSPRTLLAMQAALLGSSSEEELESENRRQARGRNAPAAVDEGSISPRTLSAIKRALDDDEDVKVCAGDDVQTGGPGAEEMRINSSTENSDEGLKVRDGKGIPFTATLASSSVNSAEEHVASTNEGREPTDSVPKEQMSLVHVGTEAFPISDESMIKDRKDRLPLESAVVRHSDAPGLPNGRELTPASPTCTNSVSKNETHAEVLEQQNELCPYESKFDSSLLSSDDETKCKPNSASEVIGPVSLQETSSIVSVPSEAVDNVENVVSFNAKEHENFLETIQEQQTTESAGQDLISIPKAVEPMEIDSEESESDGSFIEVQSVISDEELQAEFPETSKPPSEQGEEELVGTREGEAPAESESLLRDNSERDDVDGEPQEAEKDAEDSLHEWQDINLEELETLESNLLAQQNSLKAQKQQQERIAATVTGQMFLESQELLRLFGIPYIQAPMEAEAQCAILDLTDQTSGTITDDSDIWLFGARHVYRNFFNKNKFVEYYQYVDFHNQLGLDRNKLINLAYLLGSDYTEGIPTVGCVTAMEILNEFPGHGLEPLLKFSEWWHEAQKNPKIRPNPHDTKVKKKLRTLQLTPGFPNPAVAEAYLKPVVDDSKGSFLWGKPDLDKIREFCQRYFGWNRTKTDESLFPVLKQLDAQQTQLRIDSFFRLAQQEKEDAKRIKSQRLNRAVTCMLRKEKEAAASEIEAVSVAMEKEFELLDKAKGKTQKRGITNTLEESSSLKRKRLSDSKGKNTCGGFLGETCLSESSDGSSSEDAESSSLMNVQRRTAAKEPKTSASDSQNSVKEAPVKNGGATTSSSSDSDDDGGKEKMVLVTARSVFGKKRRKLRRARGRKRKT
Sequence of hEXO1, Isoform1 (Q9UQ84 whole entry, canonical isoform): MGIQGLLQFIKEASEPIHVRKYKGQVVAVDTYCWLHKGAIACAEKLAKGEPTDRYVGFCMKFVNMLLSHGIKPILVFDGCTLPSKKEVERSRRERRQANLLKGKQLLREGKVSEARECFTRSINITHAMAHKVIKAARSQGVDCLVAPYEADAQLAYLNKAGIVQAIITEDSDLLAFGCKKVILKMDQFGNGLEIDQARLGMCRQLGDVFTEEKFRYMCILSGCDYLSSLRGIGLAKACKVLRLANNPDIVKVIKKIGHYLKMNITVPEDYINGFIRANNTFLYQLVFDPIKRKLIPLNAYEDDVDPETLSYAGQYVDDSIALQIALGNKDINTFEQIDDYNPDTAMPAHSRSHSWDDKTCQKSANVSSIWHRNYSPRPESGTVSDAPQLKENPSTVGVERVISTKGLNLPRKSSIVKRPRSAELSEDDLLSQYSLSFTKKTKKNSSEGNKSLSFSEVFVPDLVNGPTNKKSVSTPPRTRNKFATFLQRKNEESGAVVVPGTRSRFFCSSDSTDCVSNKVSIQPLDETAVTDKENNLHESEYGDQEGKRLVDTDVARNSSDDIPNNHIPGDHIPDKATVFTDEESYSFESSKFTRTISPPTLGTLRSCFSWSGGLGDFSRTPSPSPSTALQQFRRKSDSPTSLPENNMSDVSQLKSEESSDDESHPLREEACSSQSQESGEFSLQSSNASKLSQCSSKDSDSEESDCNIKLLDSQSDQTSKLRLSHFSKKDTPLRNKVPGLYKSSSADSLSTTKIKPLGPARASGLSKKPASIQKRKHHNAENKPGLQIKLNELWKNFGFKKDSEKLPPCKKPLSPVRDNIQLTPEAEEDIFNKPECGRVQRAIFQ
Sequence of hFEN1 (P39748 whole entry): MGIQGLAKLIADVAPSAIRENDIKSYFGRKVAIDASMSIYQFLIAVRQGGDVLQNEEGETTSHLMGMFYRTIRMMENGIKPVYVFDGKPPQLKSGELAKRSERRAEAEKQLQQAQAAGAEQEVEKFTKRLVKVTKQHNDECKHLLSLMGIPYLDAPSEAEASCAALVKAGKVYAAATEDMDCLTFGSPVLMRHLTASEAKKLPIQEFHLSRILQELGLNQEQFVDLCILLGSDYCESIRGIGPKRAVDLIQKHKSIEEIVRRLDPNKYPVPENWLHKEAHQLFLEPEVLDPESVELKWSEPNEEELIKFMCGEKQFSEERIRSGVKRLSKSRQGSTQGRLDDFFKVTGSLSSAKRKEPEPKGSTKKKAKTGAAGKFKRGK

Compound	IC50 (hFEN1)	IC50 (hEXO1, Isoform1)	IC50 (hXPG)
Cc1ncc(Cn2c(=O)c(O)c(C(=O)O)c3sccc32)s1 [Example 91, 6-hydroxy-4-[(2-methylthiazol-5-yl)methyl]-5-oxo-4,5-dihydrothieno[3,2-b]pyridine-7-carboxylic acid]	< 0.2 µM	2.25 to 10 µM	2.25 to 10 µM
O=C(O)c1c(O)c(=O)n(Cc2cccc(Br)c2)c2ccsc12 [Example 1, 4-(3-bromobenzyl)-6-hydroxy-5-oxo-4,5-dihydrothieno[3,2-b]pyridine-7-carboxylic acid]	0.25 to 0.75 µM	2.25 to 10 µM	2.25 to 10 µM
COc1ccc(Cn2c(=O)c(O)c(C(=O)O)c3sc(C4CC4)cc32)cc1 [Example 30, 2-cyclopropyl-6-hydroxy-4-(4-methoxybenzyl)-5-oxo-4,5-dihydrothieno[3,2-b]pyridine-7-carboxylic acid]	0.75 to 2.25 µM	0.25 to 0.75 µM	2.25 to 10 µM
O=C(O)c1c(O)c(=O)n(Cc2cnc3ccccc3c2)c2ccsc12 [Example 101, 6-hydroxy-5-oxo-4-(quinolin-3-ylmethyl)-4,5-dihydrothieno[3,2-b]pyridine-7-carboxylic acid]	0.25 to 0.75 µM	0.25 to 0.75 µM	2.25 to 10 µM
CS(=O)(=O)c1cccc(Cn2cc(Cn3c(=O)c(O)c(C(=O)O)c4sccc43)cn2)c1 [Example 131, 6-hydroxy-4-({1-[3-(methylsulfonyl)benzyl]-1H-pyrazol-4-yl}methyl)-5-oxo-4,5-dihydrothieno[3,2-b]pyridine-7-carboxylic acid]	< 0.2 µM	2.25 to 10 µM	2.25 to 10 µM
O=C(O)c1c(O)c(=O)n(Cc2cccc(Cl)c2)c2ccsc12 [Example 34, 4-(3-chlorobenzyl)-6-hydroxy-5-oxo-4,5-dihydrothieno[3,2-b]pyridine-7-carboxylic acid]	< 0.2 µM	2.25 to 10 µM	2.25 to 10 µM
CS(=O)(=O)c1ccc(Cn2c(=O)c(O)c(C(=O)O)c3sccc32)cc1 [Example 50, 6-hydroxy-4-(4-(methylsulfonyl)benzyl)-5-oxo-4,5-dihydrothieno[3,2-b]pyridine-7-carboxylic acid]	0.25 to 0.75 µM	0.75 to 2.25 µM	2.25 to 10 µM
